Experimental data as given in PubChem BioAssay (NCI).
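All cell lines were grown in 96-well plates and treated with compound for 48 hours. Here, GI50 denotes the concentration required for 50% inhibition of growth. TGI is the concentration that stops growth completely.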

Assays:
Experiment in all cases: NCI tumour cell line growth inhibition, 48 h
KM12 colon = test system: KM12 colon
EKVX NSCLC = test system: EKVX NSCLC
SK-MEL-5 melanoma = test system: SK-MEL-5 melanoma
HOP-92 NSCLC = test system: HOP-92 NSCLC
MOLT-4 leukemia = test system: MOLT-4 leukemia
NCI-H23 lung = test system: NCI-H23 lung
OVCAR-3 ovarian = test system: OVCAR-3 ovarian
NCI-H226 lung = test system: NCI-H226 lung
NCI-H460 lung = test system: NCI-H460 lung
HCT-116 colon = test system: HCT-116 colon
M14 melanoma = test system: M14 melanoma
SW-620 colon = test system: SW-620 colon
IGROV1 ovarian = test system: IGROV1 ovarian
UACC-257 melanoma = test system: UACC-257 melanoma
SF-295 CNS = test system: SF-295 CNS
SR leukemia = test system: SR leukemia
UO-31 renal = test system: UO-31 renal
SNB-75 CNS = test system: SNB-75 CNS
MALME-3M melanoma = test system: MALME-3M melanoma
HCC-2998 colon = test system: HCC-2998 colon
SK-MEL-2 melanoma = test system: SK-MEL-2 melanoma
A549 NSCLC = test system: A549 NSCLC
LOX IMVI melanoma = test system: LOX IMVI melanoma
DU-145 prostate = test system: DU-145 prostate
U251 CNS = test system: U251 CNS
BT-549 breast = test system: BT-549 breast
HL-60(TB) leukemia = test system: HL-60(TB) leukemia
ACHN renal = test system: ACHN renal
MDA-MB-435 = test system: MDA-MB-435
K-562 leukemia = test system: K-562 leukemia
SN12C renal = test system: SN12C renal
MDA-MB-231 breast = test system: MDA-MB-231 breast
OVCAR-4 ovarian = test system: OVCAR-4 ovarian
TK-10 renal = test system: TK-10 renal
SNB-19 CNS = test system: SNB-19 CNS
PC-3 prostate = test system: PC-3 prostate
T-47D breast = test system: T-47D breast
HCT-15 colon = test system: HCT-15 colon
SF-539 CNS = test system: SF-539 CNS
SF-268 CNS = test system: SF-268 CNS
CAKI-1 renal = test system: CAKI-1 renal
HS 578T breast = test system: HS 578T breast
HT29 colon = test system: HT29 colon
RXF 393 renal = test system: RXF 393 renal
UACC-62 melanoma = test system: UACC-62 melanoma
HOP-62 NSCLC = test system: HOP-62 NSCLC
RPMI-8226 leukemia = test system: RPMI-8226 leukemia
OVCAR-5 ovarian = test system: OVCAR-5 ovarian
OVCAR-8 ovarian = test system: OVCAR-8 ovarian
CCRF-CEM leukemia = test system: CCRF-CEM leukemia
A498 renal = test system: A498 renal
COLO 205 colon = test system: COLO 205 colon
SK-OV-3 ovarian = test system: SK-OV-3 ovarian
NCI/ADR-RES ovarian = test system: NCI/ADR-RES ovarian
SK-MEL-28 melanoma = test system: SK-MEL-28 melanoma
NCI-H522 lung = test system: NCI-H522 lung
786-0 renal = test system: 786-0 renal
MCF7 breast = test system: MCF7 breast

Compound: COc1cc(NCCCCCN=C(N)N)c2ncccc2c1
- GI50 (KM12 colon): 2.04 µM
- TGI (KM12 colon): 14.5 µM
- GI50 (EKVX NSCLC): 4.79 µM
- TGI (EKVX NSCLC): > 50.5 µM
- GI50 (SK-MEL-5 melanoma): 2.31 µM
- TGI (SK-MEL-5 melanoma): 6.86 µM
- GI50 (HOP-92 NSCLC): 2.69 µM
- TGI (HOP-92 NSCLC): 40.4 µM
- GI50 (MOLT-4 leukemia): 4.53 µM
- TGI (MOLT-4 leukemia): > 74.4 µM
- GI50 (NCI-H23 lung): 1.74 µM
- TGI (NCI-H23 lung): 18.9 µM
- GI50 (OVCAR-3 ovarian): 0.468 µM
- TGI (OVCAR-3 ovarian): 9.03 µM
- GI50 (NCI-H226 lung): 16.8 µM
- TGI (NCI-H226 lung): > 100 µM
- GI50 (NCI-H460 lung): 7.09 µM
- TGI (NCI-H460 lung): > 57.5 µM
- GI50 (HCT-116 colon): 2.74 µM
- TGI (HCT-116 colon): > 63.5 µM
- GI50 (M14 melanoma): 17.7 µM
- TGI (M14 melanoma): 54.1 µM
- GI50 (SW-620 colon): 4.97 µM
- TGI (SW-620 colon): > 100 µM
- GI50 (IGROV1 ovarian): 1.03 µM
- TGI (IGROV1 ovarian): > 36 µM
- GI50 (UACC-257 melanoma): 4.38 µM
- TGI (UACC-257 melanoma): 16.7 µM
- GI50 (SF-295 CNS): 17.1 µM
- TGI (SF-295 CNS): 97.8 µM
- GI50 (SR leukemia): 6.28 µM
- TGI (SR leukemia): 40.6 µM
- GI50 (UO-31 renal): > 100 µM
- TGI (UO-31 renal): > 100 µM
- GI50 (SNB-75 CNS): 3.25 µM
- TGI (SNB-75 CNS): 16.6 µM
- GI50 (MALME-3M melanoma): 1.97 µM
- TGI (MALME-3M melanoma): 8.92 µM
- GI50 (HCC-2998 colon): 3.97 µM
- TGI (HCC-2998 colon): > 33.9 µM
- GI50 (SK-MEL-2 melanoma): 3.31 µM
- TGI (SK-MEL-2 melanoma): 16.1 µM
- GI50 (A549 NSCLC): 30 µM
- TGI (A549 NSCLC): > 100 µM
- GI50 (LOX IMVI melanoma): 8.21 µM
- TGI (LOX IMVI melanoma): > 56.1 µM
- GI50 (DU-145 prostate): 35.1 µM
- TGI (DU-145 prostate): > 100 µM
- GI50 (U251 CNS): 3.23 µM
- TGI (U251 CNS): 25.8 µM
- GI50 (BT-549 breast): 5.38 µM
- TGI (BT-549 breast): 18.5 µM
- GI50 (HL-60(TB) leukemia): 3.46 µM
- TGI (HL-60(TB) leukemia): 15.2 µM
- GI50 (ACHN renal): 41.5 µM
- TGI (ACHN renal): > 100 µM
- GI50 (MDA-MB-435): 16.7 µM
- TGI (MDA-MB-435): 42.3 µM
- GI50 (K-562 leukemia): 5.16 µM
- TGI (K-562 leukemia): > 88.2 µM
- GI50 (SN12C renal): 3.57 µM
- TGI (SN12C renal): 13.7 µM
- GI50 (MDA-MB-231 breast): 2.65 µM
- TGI (MDA-MB-231 breast): 12.3 µM
- GI50 (OVCAR-4 ovarian): 0.043 µM
- TGI (OVCAR-4 ovarian): 0.953 µM
- GI50 (TK-10 renal): 3.43 µM
- TGI (TK-10 renal): 17.1 µM
- GI50 (SNB-19 CNS): 5.62 µM
- TGI (SNB-19 CNS): 30.3 µM
- GI50 (PC-3 prostate): 3.47 µM
- TGI (PC-3 prostate): > 49.6 µM
- GI50 (T-47D breast): 1.07 µM
- TGI (T-47D breast): 6.98 µM
- GI50 (HCT-15 colon): 43.9 µM
- TGI (HCT-15 colon): > 100 µM
- GI50 (SF-539 CNS): 4.68 µM
- TGI (SF-539 CNS): 19.4 µM
- GI50 (SF-268 CNS): 3.59 µM
- TGI (SF-268 CNS): 22.6 µM
- GI50 (CAKI-1 renal): > 100 µM
- TGI (CAKI-1 renal): > 100 µM
- GI50 (HS 578T breast): 19 µM
- TGI (HS 578T breast): > 65.4 µM
- GI50 (HT29 colon): 5.97 µM
- TGI (HT29 colon): > 80.7 µM
- GI50 (RXF 393 renal): 24.9 µM
- TGI (RXF 393 renal): > 94.7 µM
- GI50 (UACC-62 melanoma): 7.2 µM
- TGI (UACC-62 melanoma): 24 µM
- GI50 (HOP-62 NSCLC): 10.1 µM
- TGI (HOP-62 NSCLC): > 93.4 µM
- GI50 (RPMI-8226 leukemia): 5.45 µM
- TGI (RPMI-8226 leukemia): 33.5 µM
- GI50 (OVCAR-5 ovarian): 5.73 µM
- TGI (OVCAR-5 ovarian): 30 µM
- GI50 (OVCAR-8 ovarian): 4.24 µM
- TGI (OVCAR-8 ovarian): > 71.7 µM
- GI50 (CCRF-CEM leukemia): 5.1 µM
- TGI (CCRF-CEM leukemia): > 74.3 µM
- GI50 (A498 renal): 42.5 µM
- TGI (A498 renal): > 100 µM
- GI50 (COLO 205 colon): 2.92 µM
- TGI (COLO 205 colon): 9.3 µM
- GI50 (SK-OV-3 ovarian): 60 µM
- TGI (SK-OV-3 ovarian): > 100 µM
- GI50 (NCI/ADR-RES ovarian): > 100 µM
- TGI (NCI/ADR-RES ovarian): > 100 µM
- GI50 (SK-MEL-28 melanoma): 14.6 µM
- TGI (SK-MEL-28 melanoma): 38.6 µM
- GI50 (NCI-H522 lung): 0.369 µM
- TGI (NCI-H522 lung): 4.85 µM
- GI50 (786-0 renal): 23.8 µM
- TGI (786-0 renal): > 100 µM
- GI50 (MCF7 breast): 0.179 µM
- TGI (MCF7 breast): 1.11 µM
